Assay [1] concerns HCV replicon I389luc-ubi-neo/NS3-3′/ET in ET (Huh-lucubineo-ET) cells. The assay can be described thus: Replicon assay (Biological Example 2), luciferase readout. The assay is classed as cell-based. The conditions noted are these: Hepatitis C virus. The procedure, abridged: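 EC50 values come from Hill fits of % inhibition of replicon-driven firefly luciferase, relative to no-compound wells. Compounds were serially diluted (10 points, 3-fold, 0.1 nM–50 μM final, 0.5% DMSO) onto ET replicon cells and read after 48 h.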
For orientation: Replicon systems follow genome replication, usually without infectious particles.

The target in assay [2] is T1, HCV polymerase (Hepatitis C virus genotype 1b, UniProt Q9WMX2).
T1 construct: (His)6 (C); made in house; host or cells: XL-1 cells (E. coli, by own knowledge)
The assay can be described thus: Polymerase assay of Biological Example 1 (IC50 values of Table 3). The assay is classed as biochemical. The following applies: IC50 values of Table 3, polymerase assay of Biological Example 1; read-out: NS5B-enzyme3.

Where [3] appears, read: ET cells, luciferase activity 48 hours after compound.

As to `CN(C)C1CCN(c2ccc(S(=O)(=O)N3CC(=O)N(c4cc(-c5ccccc5)sc4C(=O)O)[C@H](C4CCCCC4)C3)cn2)CC1` [Compound 147, 3-[(R)-2-Cyclohexyl-4-(4-dimethylamino-3,4,5,6-tetrahydro-2H-[1,2′]bipyridinyl-5′-sulfonyl)-6-oxo-piperazin-1-yl]-5-phenyl-thiophene-2-carboxylic acid], the results for the IC50 in assay [1] (setting [3]) and in assay [2] were at most 0.1 µM and 0.001 µM, respectively.

Regarding `CC(=O)Nc1ccc(S(=O)(=O)N2CC(=O)N(c3cc(-c4ccccc4)sc3C(=O)O)C(C3CCCCC3)C2)cc1` (stereo not drawn) [Compound 50, 3-[4-(4-Acetylamino-benzenesulfonyl)-2-cyclohexyl-6-oxo-piperazin-1-yl]-5-phenyl-thiophene-2-carboxylic acid], the IC50 in assay [1] (between 100 nM and 5.0 uM) is 0.1 to 5 µM; in assay [2] it was 0.007 µM.

On to `O=C(O)c1sc(-c2ccc(Cl)cc2)cc1N1C(=O)CN(S(=O)(=O)c2ccc(N3CC4CC3CO4)nc2)C[C@H]1C1CCCCC1` (stereo partly drawn) [Compound 229, 5-(4-Chloro-phenyl)-3-{(R)-2-cyclohexyl-4-[6-(2-oxa-5-aza-bicyclo[2.2.1]hept-5-yl)-pyridine-3-sulfonyl]-6-oxo-piperazin-1-yl}-thiophene-2-carboxylic acid], for which the figures for the IC50 in assay [1] (setting [3]) and in assay [2] were at most 0.1 µM and 0.001 µM, respectively.

On to `N#Cc1ccc(-c2cc(N3C(=O)CCCC3C3CCCCC3)c(C(=O)O)s2)cc1` (stereo not drawn) [Compound 129, 5-(4-Cyano-phenyl)-3-(2-cyclohexyl-6-oxo-piperidin-1-yl)-thiophene-2-carboxylic acid], for which the IC50 in assay [1] (between 100 nM and 5.0 uM) is 0.1 to 5 µM; in assay [2] it was 0.096 µM.

`O=C(O)c1sc(-c2ccccc2)cc1N1C(=O)CN(S(=O)(=O)c2ccc(N3CCC(F)(F)CC3)nc2)CC1C1CCCCC1` (stereo not drawn) [Compound 95, 3-[2-Cyclohexyl-4-(4,4-difluoro-3,4,5,6-tetrahydro-2H-[1,2′]bipyridinyl-5′-sulfonyl)-6-oxo-piperazin-1-yl]-5-phenyl-thiophene-2-carboxylic acid]: the IC50 is at most 0.1 µM in assay [1] (setting [3]) and 0.005 µM in assay [2].

Turning to `CC(C)(C)C#Cc1cc(N2C(=O)C(O)CCC2C2CCCCC2)c(C(=O)O)s1` (stereo not drawn) [Compound 313, 3-(6-Cyclohexyl-3-hydroxy-2-oxo-piperidin-1-yl)-5-(3,3-dimethyl-but-1-ynyl)-thiophene-2-carboxylic acid], the IC50 in assay [1] (setting [3]) is at most 0.1 µM; in assay [2], 0.0315 µM.

For `CS(=O)(=O)N1CC(=O)N(c2cc(-c3ccccc3)sc2C(=O)O)C(C2CCCCC2)C1` (stereo not drawn) [Compound 26, 3-(2-Cyclohexyl-4-methanesulfonyl-6-oxo-piperazin-1-yl)-5-phenyl-thiophene-2-carboxylic acid], the IC50 in assay [1] (between 100 nM and 5.0 uM) is 0.1 to 5 µM; in assay [2] it was 0.067 µM.

With `CC(C)(C)C#Cc1cc(N2C(=O)C(CCO)(CCO)OC[C@H]2C2CCCCC2)c(C(=O)O)s1` [Compound 333, 3-[(R)-5-Cyclohexyl-2,2-bis-(2-hydroxy-ethyl)-3-oxo-morpholin-4-yl]-5-(3,3-dimethyl-but-1-ynyl)-thiophene-2-carboxylic acid], the IC50 in assay [1] (between 100 nM and 5.0 uM) is 0.1 to 5 µM; in assay [2], 0.01 µM.

For `CC(C)(C)N1CCN(c2ccc(S(=O)(=O)N3CC(=O)N(c4cc(-c5ccccc5)sc4C(=O)O)[C@H](C4CCCCC4)C3)cn2)CC1` [Compound 152, 3-{(R)-4-[6-(4-tert-Butyl-piperazin-1-yl)-pyridine-3-sulfonyl]-2-cyclohexyl-6-oxo-piperazin-1-yl}-5-phenyl-thiophene-2-carboxylic acid], the IC50 in assay [1] (setting [3]) is at most 0.1 µM; in assay [2], 0.003 µM.

`Cc1ccc(CN2CC(=O)N(c3cc(C#CC(C)(C)C)sc3C(=O)O)C(C3CCCCC3)C2)cc1` (stereo not drawn) [Compound 174, 3-[2-Cyclohexyl-4-(4-methyl-benzyl)-6-oxo-piperazin-1-yl]-5-(3,3-dimethyl-but-1-ynyl)-thiophene-2-carboxylic acid]: the IC50 in assay [1] (setting [3]) was at least 5 µM; in assay [2], 5.11 µM.

As for `C[C@@H]1C[C@@H](O)CN1c1ccc(S(=O)(=O)N2CC(=O)N(c3cc(-c4ccccc4)sc3C(=O)O)C(C3CCCCC3)C2)cn1` (stereo partly drawn) [Compound 122, 3-{2-Cyclohexyl-4-[6-((2R,4R)-4-hydroxy-2-methyl-pyrrolidin-1-yl)-pyridine-3-sulfonyl]-6-oxo-piperazin-1-yl}-5-phenyl-thiophene-2-carboxylic acid], the IC50 was at most 0.1 µM in assay [1] (setting [3]) and 0.002 µM in assay [2].

As for `CC(C)(C)C#Cc1cc(N2C(=O)CN(S(=O)(=O)c3ccc(C(F)(F)F)cc3)C[C@H]2C2CCCCC2)c(C(=O)O)s1` [Compound 250, 3-[(R)-2-Cyclohexyl-6-oxo-4-(4-trifluoromethyl-benzenesulfonyl)-piperazin-1-yl]-5-(3,3-dimethyl-but-1-ynyl)-thiophene-2-carboxylic acid], the values for the IC50 in assay [1] (setting [3]) and in assay [2] were at most 0.1 µM and 0.0055 µM, respectively.

With `O=C(O)c1sc(-c2ccccc2)cc1N1C(=O)CN(S(=O)(=O)c2ccc(N3C4CCC3CC4)nc2)CC1C1CCCCC1` (stereo not drawn) [Compound 125, 3-{4-[6-(7-Aza-bicyclo[2.2.1]hept-7-yl)-pyridine-3-sulfonyl]-2-cyclohexyl-6-oxo-piperazin-1-yl}-5-phenyl-thiophene-2-carboxylic acid], the figures for the IC50 in assay [1] (setting [3]) and in assay [2] were at most 0.1 µM and 0.018 µM, respectively.

Take `CC(C)(C)C#Cc1cc(N2C(=O)[C@H](CCCCO)OC[C@H]2C2CCCCC2)c(C(=O)O)s1` [Compound 338, 3-[(2S,5R)-5-Cyclohexyl-2-(4-hydroxy-butyl)-3-oxo-morpholin-4-yl]-5-(3,3-dimethyl-but-1-ynyl)-thiophene-2-carboxylic acid]: the IC50 in assay [1] (between 100 nM and 5.0 uM) is 0.1 to 5 µM; in assay [2], 0.031 µM.

As to `O=C(O)c1sc(-c2ccccc2)cc1N1C(=O)CN(S(=O)(=O)c2ccc(N3CC[C@H](F)C3)nc2)CC1C1CCCCC1` (stereo partly drawn) [Compound 121, 3-{2-Cyclohexyl-4-[6-((S)-3-fluoro-pyrrolidin-1-yl)-pyridine-3-sulfonyl]-6-oxo-piperazin-1-yl}-5-phenyl-thiophene-2-carboxylic acid], the IC50 is at most 0.1 µM in assay [1] (setting [3]) and 0.007 µM in assay [2].

On to `O=C(O)c1sc(-c2ccccc2)cc1N1C(=O)CN(S(=O)(=O)c2ccc(C3=CCCC3)nc2)C[C@H]1C1CCCCC1` [Compound 215, 3-[(R)-2-Cyclohexyl-4-(6-cyclopent-1-enyl-pyridine-3-sulfonyl)-6-oxo-piperazin-1-yl]-5-phenyl-thiophene-2-carboxylic acid], for which the IC50 was 0.1 to 5 µM in assay [1] (between 100 nM and 5.0 uM); 0.002 µM in assay [2].

Regarding `O=C(O)c1sc(-c2ccccc2)cc1N1C(=O)CN(S(=O)(=O)c2ccc(-c3ccccc3)nc2)C[C@H]1C1CCCCC1` [Compound 178, 3-[(R)-2-Cyclohexyl-6-oxo-4-(6-phenyl-pyridine-3-sulfonyl)-piperazin-1-yl]-5-phenyl-thiophene-2-carboxylic acid], the IC50 is 0.1 to 5 µM in assay [1] (between 100 nM and 5.0 uM); 0.001 µM in assay [2].

On to `Cn1ccc(S(=O)(=O)N2CC(=O)N(c3cc(-c4ccccc4)sc3C(=O)O)C(C3CCCCC3)C2)n1` (stereo not drawn) [Compound 62, 3-[2-Cyclohexyl-4-(1-methyl-1H-pyrazole-3-sulfonyl)-6-oxo-piperazin-1-yl]-5-phenyl-thiophene-2-carboxylic acid], for which the IC50 is 0.1 to 5 µM in assay [1] (between 100 nM and 5.0 uM); 0.011 µM in assay [2].

As to `CCn1cc(S(=O)(=O)N2CC(=O)N(c3cc(C#CC(C)(C)C)sc3C(=O)O)[C@H](C3CCCCC3)C2)cn1` [Compound 275, 3-[(R)-2-Cyclohexyl-4-(1-ethyl-1H-pyrazole-4-sulfonyl)-6-oxo-piperazin-1-yl]-5-(3,3-dimethyl-but-1-ynyl)-thiophene-2-carboxylic acid], the IC50 in assay [1] (setting [3]) is at most 0.1 µM; in assay [2] it was 0.002 µM.

With `O=C(O)c1sc(-c2ccccc2)cc1N1C(=O)CN(S(=O)(=O)c2ccc(N3CCOCC3)nc2)C[C@H]1C1CCCCC1` [Compound 184, 3-[(R)-2-Cyclohexyl-4-(6-morpholin-4-yl-pyridine-3-sulfonyl)-6-oxo-piperazin-1-yl]-5-phenyl-thiophene-2-carboxylic acid], the IC50 in assay [1] (setting [3]) is at most 0.1 µM; in assay [2], 0.0017 µM.

As for `O=C(O)c1sc(-c2ccc(Cl)cc2)cc1N1C(=O)CN(S(=O)(=O)c2ccc(N3CCCCC3)cc2)C[C@H]1C1CCCCC1` [Compound 233, 5-(4-Chloro-phenyl)-3-[(R)-2-cyclohexyl-6-oxo-4-(4-piperidin-1-yl-benzenesulfonyl)-piperazin-1-yl]-thiophene-2-carboxylic acid], the figures for the IC50 in assay [1] (setting [3]) and in assay [2] were at most 0.1 µM and 0.002 µM, respectively.

Turning to `CC(C)(C)C#Cc1cc(N2C(=O)[C@@](C)(CCC(C)(C)O)OC[C@H]2C2CCCCC2)c(C(=O)O)s1` [Compound 319, 3-[(2R,5R)-5-Cyclohexyl-2-(3-hydroxy-3-methyl-butyl)-2-methyl-3-oxo-morpholin-4-yl]-5-(3,3-dimethyl-but-1-ynyl)-thiophene-2-carboxylic acid], the IC50 in assay [1] (setting [3]) is at most 0.1 µM; in assay [2], 0.004 µM.

For `O=C(O)c1sc(-c2ccccc2)cc1N1C(=O)CN(S(=O)(=O)Cc2ccccc2)CC1C1CCCCC1` (stereo not drawn) [Compound 27, 3-(2-Cyclohexyl-6-oxo-4-phenylmethanesulfonyl-piperazin-1-yl)-5-phenyl-thiophene-2-carboxylic acid], the IC50 is 0.1 to 5 µM in assay [1] (between 100 nM and 5.0 uM); 0.022 µM in assay [2].

Take `Cc1cccc(S(=O)(=O)N2CC(=O)N(c3cc(-c4ccccc4)sc3C(=O)O)C(C3CCCCC3)C2)c1` (stereo not drawn) [Compound 49, 3-[2-Cyclohexyl-6-oxo-4-(toluene-3-sulfonyl)-piperazin-1-yl]-5-phenyl-thiophene-2-carboxylic acid]: the IC50 in assay [1] (between 100 nM and 5.0 uM) is 0.1 to 5 µM; in assay [2] it was 0.015 µM.
